These results are taken from ChEMBL document CHEMBL3608278 (J Med Chem, 2015).

Assay [1] concerns the target T1, Potassium voltage-gated channel subfamily A member 3 (Homo sapiens, UniProt P22001). The assay can be described thus: cell-based. Set-up: species or system Blood.
The target of assay [2] is T1, Potassium voltage-gated channel subfamily A member 3. Set-up: species or system Blood.

T1 sequence (P22001 whole entry): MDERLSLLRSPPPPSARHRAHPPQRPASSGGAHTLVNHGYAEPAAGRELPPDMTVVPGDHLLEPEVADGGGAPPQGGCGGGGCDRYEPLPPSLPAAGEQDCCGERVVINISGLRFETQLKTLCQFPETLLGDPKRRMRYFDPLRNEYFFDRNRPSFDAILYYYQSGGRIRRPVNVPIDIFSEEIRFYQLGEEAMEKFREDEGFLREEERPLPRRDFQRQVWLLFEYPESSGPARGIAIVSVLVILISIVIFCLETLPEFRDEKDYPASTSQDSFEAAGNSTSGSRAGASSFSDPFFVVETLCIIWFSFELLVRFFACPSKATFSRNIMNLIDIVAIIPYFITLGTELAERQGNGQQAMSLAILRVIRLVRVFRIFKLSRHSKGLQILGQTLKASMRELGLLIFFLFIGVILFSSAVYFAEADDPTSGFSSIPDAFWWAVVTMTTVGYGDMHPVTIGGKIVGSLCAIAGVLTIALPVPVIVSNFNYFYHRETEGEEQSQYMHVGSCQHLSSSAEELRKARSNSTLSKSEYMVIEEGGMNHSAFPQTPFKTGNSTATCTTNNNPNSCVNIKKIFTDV

In the case of `CC[C@H](C)[C@@H]1NC(=O)[C@@H](NC(=O)[C@H](CO)NC(=O)[C@@H](N)CCCNC(=N)N)CSSC[C@@H](C(=O)O)NC(=O)[C@H]([C@@H](C)O)NC(=O)CNC(=O)[C@@H]2CSSC[C@@H]3NC(=O)[C@H](CCC(N)=O)NC(=O)[C@H](Cc4ccccc4)NC(=O)[C@H](C)NC(=O)[C@H]([C@@H](C)O)NC(=O)[C@H](CSSC[C@H](NC(=O)[C@H](Cc4ccccc4)NC(=O)[C@H](CCC(=O)O)NC(=O)[C@H](CC(C)C)NC(=O)[C@H](CCCNC(=N)N)NC(=O)[C@H](Cc4ccc(O)cc4)NC(=O)[C@H](CCCCN)NC(=O)[C@H](CCSC)NC(=O)[C@H](CO)NC(=O)[C@H](Cc4cnc[nH]4)NC(=O)[C@H](CCCCN)NC3=O)C(=O)N[C@@H](CCCNC(=N)N)C(=O)N[C@@H](CCCCN)C(=O)N[C@@H]([C@@H](C)O)C(=O)N2)NC(=O)[C@H](CCCNC(=N)N)NC(=O)[C@H](CO)NC(=O)[C@H](CCCCN)NC(=O)[C@@H]2CCCN2C(=O)[C@H]([C@@H](C)CC)NC(=O)[C@H]([C@@H](C)O)NC(=O)[C@H](CC(=O)O)NC1=O`, the IC50 is 0.202 nM in assay [1] and 0.4 nM in assay [2].
For `CC[C@H](C)[C@@H]1NC(=O)[C@@H](NC(=O)[C@H](CO)NC(=O)[C@@H](N)CCCNC(=N)N)CSSC[C@@H](C(=O)O)NC(=O)[C@H]([C@@H](C)O)NC(=O)CNC(=O)[C@@H]2CSSC[C@@H]3NC(=O)[C@H](CCC(N)=O)NC(=O)[C@H](Cc4ccccc4)NC(=O)[C@H](C)NC(=O)[C@H]([C@@H](C)O)NC(=O)[C@H](CSSC[C@H](NC(=O)[C@H](Cc4ccccc4)NC(=O)[C@H](CO)NC(=O)[C@H](CC(C)C)NC(=O)[C@H](CCCNC(=N)N)NC(=O)[C@H](Cc4ccc(O)cc4)NC(=O)[C@H](CCCCN)NC(=O)[C@H](CCSC)NC(=O)[C@H](CO)NC(=O)[C@H](Cc4c[nH]cn4)NC(=O)[C@H](CCCCN)NC3=O)C(=O)N[C@@H](CCCNC(=N)N)C(=O)N[C@@H](CCCCN)C(=O)N[C@@H]([C@@H](C)O)C(=O)N2)NC(=O)[C@H](CCCNC(=N)N)NC(=O)[C@H](CO)NC(=O)[C@H](CCCCN)NC(=O)[C@@H]2CCCN2C(=O)[C@H]([C@@H](C)CC)NC(=O)[C@H](CCCNC(=N)N)NC(=O)[C@H](CC(=O)O)NC1=O`, in that order: 0.215 nM and 0.304 nM.
On the same counts, the results for `CC[C@H](C)[C@@H]1NC(=O)[C@@H](NC(=O)[C@H](CO)NC(=O)[C@@H](N)Cc2cccc3ccccc23)CSSC[C@@H](C(=O)O)NC(=O)[C@H]([C@@H](C)O)NC(=O)CNC(=O)[C@@H]2CSSC[C@@H]3NC(=O)[C@H](CCC(N)=O)NC(=O)[C@H](Cc4ccccc4)NC(=O)[C@H](C)NC(=O)[C@H]([C@@H](C)O)NC(=O)[C@H](CSSC[C@H](NC(=O)[C@H](Cc4ccccc4)NC(=O)[C@H](CO)NC(=O)[C@H](CC(C)C)NC(=O)[C@H](CCCNC(=N)N)NC(=O)[C@H](Cc4ccc(O)cc4)NC(=O)[C@H](CCCCN)NC(=O)[C@H](CCSC)NC(=O)[C@H](CO)NC(=O)[C@H](Cc4cnc[nH]4)NC(=O)[C@H](CCCCN)NC3=O)C(=O)N[C@@H](CCCNC(=N)N)C(=O)N[C@@H](CCCCN)C(=O)N[C@@H]([C@@H](C)O)C(=O)N2)NC(=O)[C@H](CCCNC(=N)N)NC(=O)[C@H](CO)NC(=O)[C@H](CCCCN)NC(=O)[C@@H]2CCCN2C(=O)[C@H]([C@@H](C)CC)NC(=O)[C@H]([C@@H](C)O)NC(=O)[C@H](CC(=O)O)NC1=O` are 0.222 nM and 0.248 nM.
For `CC[C@H](C)[C@@H]1NC(=O)[C@@H](NC(=O)[C@H](CO)NC(=O)[C@@H](N)CCCNC(=N)N)CSSC[C@@H](C(=O)O)NC(=O)[C@H]([C@@H](C)O)NC(=O)CNC(=O)[C@@H]2CSSC[C@@H]3NC(=O)[C@H](CCC(N)=O)NC(=O)[C@H](Cc4ccccc4)NC(=O)[C@H](C)NC(=O)[C@H]([C@@H](C)O)NC(=O)[C@H](CSSC[C@H](NC(=O)[C@H](Cc4ccccc4)NC(=O)[C@H](CO)NC(=O)[C@H](C)NC(=O)[C@H](CCCNC(=N)N)NC(=O)[C@H](Cc4ccc(O)cc4)NC(=O)[C@H](CCCCN)NC(=O)[C@H](CCSC)NC(=O)[C@H](CO)NC(=O)[C@H](Cc4cnc[nH]4)NC(=O)[C@H](CCCCN)NC3=O)C(=O)N[C@@H](CCCNC(=N)N)C(=O)N[C@@H](CCCCN)C(=O)N[C@@H]([C@@H](C)O)C(=O)N2)NC(=O)[C@H](CCCNC(=N)N)NC(=O)[C@H](CO)NC(=O)[C@H](CCCCN)NC(=O)[C@@H]2CCCN2C(=O)[C@H]([C@@H](C)CC)NC(=O)[C@H]([C@@H](C)O)NC(=O)[C@H](CC(=O)O)NC1=O`, in that order: 0.199 nM and 0.641 nM.
Consider `CCCC[C@@H]1NC(=O)[C@H](CO)NC(=O)[C@H](Cc2c[nH]cn2)NC(=O)[C@H](CCCCN)NC(=O)[C@@H]2CSSC[C@@H]3NC(=O)[C@H]([C@@H](C)O)NC(=O)[C@H](CCCCN)NC(=O)[C@H](CCCNC(=N)N)NC(=O)[C@H](CSSC[C@H](NC(=O)[C@H](CCCNC(=N)N)NC(=O)[C@H](CO)NC(=O)[C@H](CCCCN)NC(=O)[C@@H]4CCCN4C(=O)[C@H]([C@@H](C)CC)NC(=O)[C@H]([C@@H](C)O)NC(=O)[C@H](CC(=O)O)NC(=O)[C@H]([C@@H](C)CC)NC(=O)[C@@H](NC(=O)[C@H](CO)NC(=O)[C@@H](N)CCCNC(=N)N)CSSC[C@@H](C(N)=O)NC(=O)[C@H]([C@@H](C)O)NC(=O)CNC3=O)C(=O)N[C@@H]([C@@H](C)O)C(=O)N[C@@H](C)C(=O)N[C@@H](Cc3ccccc3)C(=O)N[C@@H](CCCCN)C(=O)N2)NC(=O)[C@H](Cc2ccccc2)NC(=O)[C@H](CO)NC(=O)[C@H](CC(C)C)NC(=O)[C@H](CCCNC(=N)N)NC(=O)[C@H](Cc2ccc(O)cc2)NC(=O)[C@H](CCCCN)NC1=O`, for which the IC50 was 0.823 nM in assay [1] and 1.1 nM in assay [2].
On the same counts, the results for `CC[C@H](C)[C@@H]1NC(=O)[C@@H](NC(=O)[C@H](CO)NC(=O)[C@@H](N)CCCNC(=N)N)CSSC[C@@H](C(=O)O)NC(=O)[C@H]([C@@H](C)O)NC(=O)CNC(=O)[C@@H]2CSSC[C@@H]3NC(=O)[C@H](CCC(N)=O)NC(=O)[C@H](Cc4ccccc4)NC(=O)[C@H](C)NC(=O)[C@H]([C@@H](C)O)NC(=O)[C@H](CSSC[C@H](NC(=O)[C@H](Cc4ccccc4)NC(=O)[C@H](CO)NC(=O)[C@H](CC(C)C)NC(=O)[C@H](CCCNC(=N)N)NC(=O)[C@H](Cc4ccc(O)cc4)NC(=O)[C@H](CCCCN)NC(=O)[C@H](CCSC)NC(=O)[C@H](CO)NC(=O)[C@H](Cc4cnc[nH]4)NC(=O)[C@H](CCCCN)NC3=O)C(=O)N[C@@H](CCCNC(=N)N)C(=O)N[C@@H](CCCCN)C(=O)N[C@@H]([C@@H](C)O)C(=O)N2)NC(=O)[C@H](CCCNC(=N)N)NC(=O)[C@H](CO)NC(=O)[C@H](CCCCN)NC(=O)[C@@H]2CCCN2C(=O)[C@H](CCCNC(=N)N)NC(=O)[C@H]([C@@H](C)O)NC(=O)[C@H](CC(=O)O)NC1=O` are 6.56 nM and 10.1 nM.
For `CC[C@H](C)[C@@H]1NC(=O)[C@H]([C@@H](C)O)NC(=O)[C@H](CC(=O)O)NC(=O)[C@H](CCCNC(=N)N)NC(=O)[C@@H](NC(=O)[C@H](CO)NC(=O)[C@@H](N)CCCNC(=N)N)CSSC[C@@H](C(=O)O)NC(=O)[C@H]([C@@H](C)O)NC(=O)CNC(=O)[C@@H]2CSSC[C@@H]3NC(=O)[C@H](CCC(N)=O)NC(=O)[C@H](Cc4ccccc4)NC(=O)[C@H](C)NC(=O)[C@H]([C@@H](C)O)NC(=O)[C@H](CSSC[C@H](NC(=O)[C@H](Cc4ccccc4)NC(=O)[C@H](CO)NC(=O)[C@H](CC(C)C)NC(=O)[C@H](CCCNC(=N)N)NC(=O)[C@H](Cc4ccc(O)cc4)NC(=O)[C@H](CCCCN)NC(=O)[C@H](CCSC)NC(=O)[C@H](CO)NC(=O)[C@H](Cc4cnc[nH]4)NC(=O)[C@H](CCCCN)NC3=O)C(=O)N[C@@H](CCCNC(=N)N)C(=O)N[C@@H](CCCCN)C(=O)N[C@@H]([C@@H](C)O)C(=O)N2)NC(=O)[C@H](CCCNC(=N)N)NC(=O)[C@H](CO)NC(=O)[C@H](CCCCN)NC(=O)[C@@H]2CCCN2C1=O`, in that order: 0.098 nM and 0.123 nM.
On to `CC[C@H](C)[C@@H]1NC(=O)[C@@H](NC(=O)[C@H](CO)NC(=O)[C@@H](N)CCCNC(=N)N)CSSC[C@@H](C(=O)O)NC(=O)[C@H]([C@@H](C)O)NC(=O)CNC(=O)[C@@H]2CSSC[C@@H]3NC(=O)[C@H](CCC(N)=O)NC(=O)[C@H](Cc4ccccc4)NC(=O)[C@H](C)NC(=O)[C@H]([C@@H](C)O)NC(=O)[C@H](CSSC[C@H](NC(=O)[C@H](Cc4ccccc4)NC(=O)[C@H](CO)NC(=O)[C@H](CC(C)C)NC(=O)[C@H](CCCNC(=N)N)NC(=O)[C@H](Cc4ccc(O)cc4)NC(=O)[C@H](CCCCN)NC(=O)[C@H](CCSC)NC(=O)[C@H](CO)NC(=O)[C@H](Cc4cnc[nH]4)NC(=O)[C@H](CCCCN)NC3=O)C(=O)N[C@@H](CCCNC(=N)N)C(=O)N[C@@H](Cc3cccc4ccccc34)C(=O)N[C@@H]([C@@H](C)O)C(=O)N2)NC(=O)[C@H](CCCNC(=N)N)NC(=O)[C@H](CO)NC(=O)[C@H](CCCCN)NC(=O)[C@@H]2CCCN2C(=O)[C@H]([C@@H](C)CC)NC(=O)[C@H]([C@@H](C)O)NC(=O)[C@H](CC(=O)O)NC1=O`, for which the IC50 in assay [1] was found to be 0.082 nM; in assay [2] it was 0.148 nM.
On the same counts, the results for `CC[C@H](C)[C@@H]1NC(=O)[C@@H](NC(=O)[C@H](CO)NC(=O)[C@@H](N)CCCNC(=N)N)CSSC[C@@H](C(=O)O)NC(=O)[C@H]([C@@H](C)O)NC(=O)CNC(=O)[C@@H]2CSSC[C@@H]3NC(=O)[C@H](CCC(N)=O)NC(=O)[C@H](Cc4ccccc4)NC(=O)[C@H](C)NC(=O)[C@H]([C@@H](C)O)NC(=O)[C@H](CSSC[C@H](NC(=O)[C@H](Cc4ccccc4)NC(=O)[C@H](CO)NC(=O)[C@H](CCCNC(=N)N)NC(=O)[C@H](CCCNC(=N)N)NC(=O)[C@H](Cc4ccc(O)cc4)NC(=O)[C@H](CCCCN)NC(=O)[C@H](CCSC)NC(=O)[C@H](CO)NC(=O)[C@H](Cc4cnc[nH]4)NC(=O)[C@H](CCCCN)NC3=O)C(=O)N[C@@H](CCCNC(=N)N)C(=O)N[C@@H](CCCCN)C(=O)N[C@@H]([C@@H](C)O)C(=O)N2)NC(=O)[C@H](CCCNC(=N)N)NC(=O)[C@H](CO)NC(=O)[C@H](CCCCN)NC(=O)[C@@H]2CCCN2C(=O)[C@H]([C@@H](C)CC)NC(=O)[C@H]([C@@H](C)O)NC(=O)[C@H](CC(=O)O)NC1=O` are 0.137 nM and 0.194 nM.
